Laboratory results from patent US20090187484A1, “Soil treatments with carbon dioxide” (Cleareso, LLC, priority 2008, published 2009).
Values belong to the molecule of their own block, whether it stands above or below them.

Tests used:
[1] = Solubility and appearance of the aqueous test preparations; assay type: physicochemical
[2] = test system: Larvae of the root weevil, Diaprepes abbreviatus; experiment: Immersion of root weevil larvae in test solutions (mortality, moribund effect); assay type: in vivo; conditions: for toxicity judgement for the larvae: 0.1 to 5.0%, test terminated at 24 hours; for black residue across all treatments: control to 5.0%; for Mortality of larvae with individual compounds and formulations: five larvae
Excerpt: Larvae and pupae of the root weevil, Diaprepes abbreviatus, were immersed in a variety of compounds to understand their effect on the activity of this pest.
The criterion for toxicity with these larvae is the lack of nipping behavior and its consequent black residue from blood loss and the lack of spontaneous movement.
Experimental Design. Larvae and pupae were received from the Florida Dept. of Agriculture's rearing program in Gainesville, Fla. Larvae were shipped as 50-day larvae (larvae that will pupate in about 10 days). Both larvae and pupae were held at 27° C. in 12 hour cycles of light and dark in their containers as separate individuals until experimentation began.
In the testing, five larvae or pupae were removed from their rearing cups and placed in a 150 ml glass beaker. In testing the Soy Technologies Manufacturer's Base (SMTB), a 5% solution was mixed in either water or carbonated water by adding 10 ml of SMTB to a 250 ml beaker and then adding water or carbonated water to the 200 ml mark. The solutions were then immediately added to the beaker with the larvae or pupae to cover them. Controls with water or carbonated water alone were also included. There was a single tray of five larvae for each treatment at each time period and a five larvae control for each time period. Larvae were removed and placed on plastic weighing trays after 5,10, 15, 20, 25, and 30 minutes. At the end of 30 minutes all organisms were assessed for mortality. Trays with larvae were left on the bench tip for 24 hours and then another mortality assessment was made.
Concentration Series. With the results from the time series above, larvae were held in different concentrations of STMB for 30 minutes. After 30 minutes, solutions were poured off and the trays wiped dry. Assessments were made at 24 or 48 hours with a few assessments at 72 hours dependent on effects. Treatments were: water or carbonated water as controls, and 0.1, 0.5, 1.0, 2.0, 3.0, 4.0 and 5.0% concentrations in either distilled water or carbonated water. Five larvae were used for each control and treatment. Pupae were not used in this assessment.

solubility of aqueous preparation ([1]; 0.1% concentration): soluble
solubility of aqueous preparation ([1]; 1.0% concentration): just soluble
solubility of aqueous preparation ([1]; 3.0% concentration): not soluble
solubility of aqueous preparation ([1]; 5.0% concentration): not soluble
Molecule: COC(=O)CCC(=O)OC [106-65-0, butanedioic acid, dimethyl ester]
toxicity judgement for the larvae [2]: non-toxic
black residue across all treatments ([2]; 24 hours): all treatments looked just like the control

solubility of aqueous preparation ([1]; 0.1% concentration): soluble
solubility of aqueous preparation ([1]; 1.0% concentration): not completely soluble
solubility of aqueous preparation ([1]; 3.0% concentration): not completely soluble
solubility of aqueous preparation ([1]; 5.0% concentration): not completely soluble
Molecule: COC(=O)CCCCC(=O)OC [627-93-0, Dimethyl hexanedioate]
appearance (black residue) compared with control ([2]; 0.1% treatment, 24 hours): looked identical
toxicity judgement for the larvae [2]: non-toxic
black residue ([2]; 5.0% treatment, 24 hours): only slightly less black residue than the 3.0% treatment

Molecule: Polyoxyethylene 10 tridecylether [24938-91-8]
black residue ([2]; 3 and 5% treatments, 48 hours): less black residue
Mortality of larvae with individual compounds and formulations ([2]; concentration 0.1 percent, 24 hours): 0
Mortality of larvae with individual compounds and formulations ([2]; concentration 0.1 percent, 48 hours): 0
Mortality of larvae with individual compounds and formulations ([2]; concentration 0.1 percent, 72 hours): 0
Mortality of larvae with individual compounds and formulations ([2]; concentration 1.0 percent, 24 hours): 2
Mortality of larvae with individual compounds and formulations ([2]; concentration 1.0 percent, 48 hours): 2
Mortality of larvae with individual compounds and formulations ([2]; concentration 1.0 percent, 72 hours): 2
Mortality of larvae with individual compounds and formulations ([2]; concentration 3.0 percent, 24 hours): 0
Mortality of larvae with individual compounds and formulations ([2]; concentration 3.0 percent, 48 hours): 0
Mortality of larvae with individual compounds and formulations ([2]; concentration 3.0 percent, 72 hours): 0
Mortality of larvae with individual compounds and formulations ([2]; concentration 5.0 percent, 24 hours): 0
Mortality of larvae with individual compounds and formulations ([2]; concentration 5.0 percent, 48 hours): 3
Mortality of larvae with individual compounds and formulations ([2]; concentration 5.0 percent, 72 hours): 3
black residue across all treatments ([2]; 24 hours): gradation of black residue from control to 5.0 with 5.0 having the least

Molecule: COC(=O)CCCC(=O)OC [1119-40-0, pentanedioic acid, dimethyl ester]
survival of larvae after 30 minutes ([2]; 0.1 to 5.0% treatments, end of 30 minutes immersion): All larvae were alive
black residue ([2]; 3 and 5% treatments, 48 hours): less black residue than the control
